In ChEMBL document CHEMBL1129086, “Design of a novel cognitive enhancer (8S, 10aS)-8-carbamoyl-1,2,3,6,7,8,9,10a-octahydro-5H,10H-pyrrolo[1,2-a][1,4]diazocin-5,10-dione” (1996):
The source made the active and inactive calls. The rule behind the calls is not given here. Where a SMILES comes first, the peptide text is derived from it. Bridges are numbered along the chain shown (N, C = ends). [ ]: non-standard residue; d: D form. pGlu = O=C1CC[C@@H](C(=O)O)N1

What was measured:
Mus musculus [1] = organism: Mus musculus; assay: Compound was tested for sedative action in mice by neuropharmacological test; No effect; format: functional, organism-based
Mus musculus [2] = organism: Mus musculus; assay: Compound was tested for myorelaxant action in mice by neuropharmacological test; No effect; format: functional, organism-based
Mus musculus [3] = organism: Mus musculus; assay: Compound was tested for motor impairment in mice by neuropharmacological test; No effect; format: functional, organism-based
Mus musculus [4] = organism: Mus musculus; assay: Compound was tested for psychomotor activation on CNS in mice by neuropharmacological test; No effect; format: functional, organism-based; settings: Central nervous system
Rattus norvegicus [5] = assay: Compound was tested for amnesia response against scopolamine induced rats by passive avoidance test at a dose 1 mg/kg; format: functional
Rattus norvegicus [6] = assay: Antiamnesic potency was discovered in the passive avoidance test in rats at a dose 0.1 mg/kg (p<0.05); Amnesia reversed; format: functional, organism-based; set-up: dose 0.1 mg/kg
Rattus norvegicus [7] = assay: Antiamnesic potency was discovered in the passive avoidance test in rats at a dose 1.0 mg/kg (p<0.05); Amnesia reversed; format: functional, organism-based; set-up: dose 1 mg/kg

SMILES	Activity (Mus musculus [1])	Activity (Mus musculus [2])	Activity (Mus musculus [3])	Activity (Mus musculus [4])	Response (Rattus norvegicus [5])	Activity (Rattus norvegicus [6])	Activity (Rattus norvegicus [7])
CC(C)(C)OC(=O)N[C@@H](CCC(=O)O)C(=O)O	inactive	inactive	inactive	inactive	–	–	–
NC(=O)[C@@H]1CCCN1C(=O)[C@H](Cc1c[nH]cn1)NC(=O)[C@@H]1CCC(=O)N1	inactive	inactive	inactive	inactive	–	–	–
NC(=O)CC[C@H](NC(=O)[C@@H]1CCC(=O)N1)C(=O)N1CCC[C@H]1C(N)=O ([pGlu]-Gln-Pro-NH2)	inactive	inactive	inactive	inactive	–	–	–
CC(C)(C)OC(=O)N[C@@H](CCC(=O)O)C(=O)OCC(=O)NC(c1ccccc1)c1ccccc1	inactive	inactive	inactive	inactive	–	–	–
CC(C)(C)OC(=O)N[C@@H](CCC(=O)N1CCC[C@H]1C(=O)O)C(=O)OCC(=O)NC(c1ccccc1)c1ccccc1	inactive	inactive	inactive	inactive	–	–	–
O=C(COC(=O)[C@@H]1CCC(=O)N2CCC[C@H]2C(=O)N1)NC(c1ccccc1)c1ccccc1	inactive	inactive	inactive	inactive	–	–	–
NC(=O)[C@@H]1CCC(=O)N2CCC[C@H]2C(=O)N1 (Pro-Glu-NH2; lactam N-2)	inactive	inactive	inactive	inactive	83%	Amnesia reversed	Amnesia reversed
